According to patent publication US6696418B1, “Somatostatin antagonists and agonists that act at the SST subtype 2 receptor” (Pfizer Inc., priority 1999, dated 2004):
Where no end group is shown, it is not given here.

System: GH4C1 cells
Experiment: Rat pituitary assay for somatostatin receptor antagonists (cAMP content of GH4C1 cells)
Assay type: cell-based
Description: This assay is designed to quantitate the activity of antagonists of somatostatin that interact directly at the somatostatin receptor. The assay facilitates discovery of agents which increase growth hormone secretion by modulating the inhibitory effects of somatostatin. As aforementioned, somatostatin (also abbreviated SRIF) inhibits GH secretion in the anterior pituitary by binding to a high affinity membrane-bound (and G-protein coupled) receptor which is coupled negatively to adenyl cyclase, thereby reducing intracellular levels of cAMP that would otherwise facilitate, for example, secretion/release of GH from cytoplasmic granules. […] The screen is designed to quantitate the ability of test agents to reverse SRIF's inhibition of the elevated intracellular cAMP levels produced by VIP. […]
In particular, cyclic AMP (cAMP) content of the pituitary cell line GH4C1 was used to differentiate somatostatin agonists from antagonists. […] This afforded a convenient way to conduct a homogenous immunoradiometric assay of cAMP content in cells lysed in situ, following incubation of the cells with test compound. cAMP content in the GH4C1 cells was determined according to the manufacturer's instructions, by comparison with standards at concentrations from 10 to 1,000 nM cAMP. […]

| Compound | effect on VIP-elevated cAMP content of the GH4C1 cells (10 nM somatostatin 14 in the presence of 100 nM VIP) | effect on cAMP content of the GH4C1 cells (100 nM VIP) |
| --- | --- | --- |
| C[C@H](N)C(=O)NCC(=O)N[C@H]1CSSC[C@@H](C(=O)O)NC(=O)[C@H](CO)NC(=O)[C@H]([C@@H](C)O)NC(=O)[C@H](Cc2ccccc2)NC(=O)[C@H]([C@@H](C)O)NC(=O)[C@H](CCCCN)NC(=O)[C@H](Cc2c[nH]c3ccccc23)NC(=O)[C@H](Cc2ccccc2)NC(=O)[C@H](Cc2ccccc2)NC(=O)[C@H](CC(N)=O)NC(=O)[C@H](CCCCN)NC1=O [somatostatin, somatostatin 14] | partial inhibition | – |
| vasoactive intestinal peptide (HSDAVFTDNYTRLRKQMAVKKYLNSILN; ends and bridges not checked; UniProt P01282 125-152, looked up) [VIP] | – | increased cAMP content |
